According to doi:10.1101/2022.12.26.521971v1 (biorxiv, 2022):

Target: rNTSR1 (wild-type rat Neurotensin Receptor 1) (Rattus norvegicus, UniProt P20789)
Assay: cell-based
Set-up: species or system HEK293T

rNTSR1 (wild-type rat Neurotensin Receptor 1), sequence (P20789 whole entry): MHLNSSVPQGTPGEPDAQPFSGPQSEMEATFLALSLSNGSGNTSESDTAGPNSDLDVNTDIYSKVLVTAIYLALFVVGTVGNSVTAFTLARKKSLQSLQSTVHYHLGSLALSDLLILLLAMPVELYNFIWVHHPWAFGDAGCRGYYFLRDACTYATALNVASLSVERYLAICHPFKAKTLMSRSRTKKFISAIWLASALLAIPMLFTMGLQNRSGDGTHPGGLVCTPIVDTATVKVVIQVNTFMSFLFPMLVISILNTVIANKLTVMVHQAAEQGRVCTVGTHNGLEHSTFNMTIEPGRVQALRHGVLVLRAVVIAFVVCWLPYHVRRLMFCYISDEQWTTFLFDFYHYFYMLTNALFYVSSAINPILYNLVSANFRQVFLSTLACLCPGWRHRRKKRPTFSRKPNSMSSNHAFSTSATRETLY

Question: With COc1cc2nc(C3CC3)nc(N3CCN(c4ccccc4OC)CC3)c2cc1OC [ML314] as the molecule, how does the Kb read?
Answer: Its Kb is 776 nM.
